According to ChEMBL document CHEMBL1759957, “Synthesis and antibacterial evaluation of novel 8-fluoro Norfloxacin derivatives as potential probes for methicillin and vancomycin-resistant Staphylococcus aureus” (2011):
Values after ≈ are worked out from the molar mass of the structure shown.

How the values were obtained:
Assay in all cases: microbe, parasite or virus in culture
Assay type in all cases: functional
[1] = test system: Klebsiella pneumoniae; settings: ATCC 27736, 24 h
Description: Antibacterial activity against Klebsiella pneumoniae ATCC 27736 after 24 hrs by spectrophotometry

[2] = test system: Staphylococcus aureus; settings: ATCC 25923, 24 h
Description: Antibacterial activity against methicillin- resistant Staphylococcus aureus ATCC 25923 after 24 hrs by spectrophotometry

[3] = test system: Staphylococcus aureus; settings: ATCC 29213, 24 h
Description: Antibacterial activity against methicillin- resistant and vancomycin resistant Staphylococcus aureus ATCC 29213 after 24 hrs by spectrophotometry

| Compound | MIC [1] [µg/mL] | MIC [2] [µg/mL] | MIC [3] [µg/mL] |
| --- | --- | --- | --- |
| CCn1cc(C(=O)O)c(=O)c2cc(F)c(N3CCN(c4nc(NCCN5CCOCC5)nc(NCCN5CCOCC5)n4)CC3)c(F)c21 | 0.78 (≈ 1.16 µM) | 0.78 (≈ 1.16 µM) | 1.56 (≈ 2.32 µM) |
| CCn1cc(C(=O)O)c(=O)c2cc(F)c(N3CCN(c4nc(NC(C)C)nc(NC(C)C)n4)CC3)c(F)c21 | 0.39 (≈ 0.735 µM) | 0.39 (≈ 0.735 µM) | 0.78 (≈ 1.47 µM) |
| O=C(O)c1cn(Cc2ccc(C(F)(F)F)cc2)c2c(F)c(N3CCN(c4nc(N5CCOCC5)nc(N5CCOCC5)n4)CC3)c(F)cc2c1=O | 1.56 (≈ 2.18 µM) | 3.12 (≈ 4.35 µM) | 1.56 (≈ 2.18 µM) |
| CCCCNc1nc(NCCCC)nc(N2CCN(c3c(F)cc4c(=O)c(C(=O)O)cn(Cc5ccc(C(F)(F)F)cc5)c4c3F)CC2)n1 | 0.39 (≈ 0.566 µM) | 3.12 (≈ 4.53 µM) | 0.39 (≈ 0.566 µM) |
| CC(C)(C)Nc1nc(NC(C)(C)C)nc(N2CCN(c3c(F)cc4c(=O)c(C(=O)O)cn(Cc5ccc(C(F)(F)F)cc5)c4c3F)CC2)n1 | 1.56 (≈ 2.27 µM) | 3.12 (≈ 4.53 µM) | 6.25 (≈ 9.08 µM) |
| CCCNc1nc(NCCC)nc(N2CCN(c3c(F)cc4c(=O)c(C(=O)O)cn(Cc5ccc(C(F)(F)F)cc5)c4c3F)CC2)n1 | 0.78 (≈ 1.18 µM) | 1.56 (≈ 2.36 µM) | 1.56 (≈ 2.36 µM) |
| CC(C)Nc1nc(NC(C)C)nc(N2CCN(c3c(F)cc4c(=O)c(C(=O)O)cn(Cc5ccc(C(F)(F)F)cc5)c4c3F)CC2)n1 | 0.39 (≈ 0.59 µM) | 0.78 (≈ 1.18 µM) | 0.78 (≈ 1.18 µM) |
| CCCCNc1nc(C)cc(N2CCN(c3c(F)cc4c(=O)c(C(=O)O)cn(CC)c4c3F)CC2)n1 | 0.78 (≈ 1.56 µM) | 0.78 (≈ 1.56 µM) | 0.09 (≈ 0.18 µM) |
| CCn1cc(C(=O)O)c(=O)c2cc(F)c(N3CCN(c4cc(C)nc(NC(C)(C)C)n4)CC3)c(F)c21 | 0.78 (≈ 1.56 µM) | 1.56 (≈ 3.12 µM) | 0.78 (≈ 1.56 µM) |
| Cc1cc(N2CCN(c3c(F)cc4c(=O)c(C(=O)O)cn(Cc5ccc(C(F)(F)F)cc5)c4c3F)CC2)nc(N2CCOCC2)n1 | 0.78 (≈ 1.21 µM) | 1.56 (≈ 2.42 µM) | 1.56 (≈ 2.42 µM) |
| Cc1cc(N2CCN(c3c(F)cc4c(=O)c(C(=O)O)cn(Cc5ccc(C(F)(F)F)cc5)c4c3F)CC2)nc(N2CCCCC2)n1 | 0.39 (≈ 0.607 µM) | 0.78 (≈ 1.21 µM) | 0.39 (≈ 0.607 µM) |
| Cc1cc(N2CCN(c3cc4c(cc3F)c(=O)c(C(=O)O)cn4Cc3ccc(C(F)(F)F)cc3)CC2)nc(N2CCN(C)CC2)n1 | 6.25 (≈ 9.77 µM) | 6.25 (≈ 9.77 µM) | 12.5 (≈ 19.5 µM) |
| Cc1cc(N2CCN(c3c(F)cc4c(=O)c(C(=O)O)cn(Cc5ccc(C(F)(F)F)cc5)c4c3F)CC2)nc(NCCN2CCOCC2)n1 | 1.56 (≈ 2.27 µM) | 0.78 (≈ 1.13 µM) | 1.56 (≈ 2.27 µM) |
| CCCCNc1nc(C)cc(N2CCN(c3c(F)cc4c(=O)c(C(=O)O)cn(Cc5ccc(C(F)(F)F)cc5)c4c3F)CC2)n1 | 6.25 (≈ 9.91 µM) | 6.25 (≈ 9.91 µM) | 1.56 (≈ 2.47 µM) |
| CCCNc1nc(C)cc(N2CCN(c3c(F)cc4c(=O)c(C(=O)O)cn(Cc5ccc(C(F)(F)F)cc5)c4c3F)CC2)n1 | 1.56 (≈ 2.53 µM) | 1.56 (≈ 2.53 µM) | 3.12 (≈ 5.06 µM) |
| O=C(O)c1cn(C2CC2)c2cc(N3CCNCC3)c(F)cc2c1=O [CIPROFLOXACIN] | 0.19 (≈ 0.573 µM) | 0.09 (≈ 0.272 µM) | 0.38 (≈ 1.15 µM) |
| CCn1cc(C(=O)O)c(=O)c2cc(F)c(N3CCNCC3)cc21 [NORFLOXACIN] | 0.39 (≈ 1.22 µM) | 0.78 (≈ 2.44 µM) | 1.56 (≈ 4.89 µM) |
